Measured values reported in patent publication US20140336267A1, “UTILIZATION OF THE FUNCTION OF RARE SUGAR AS PROMOTER FOR THE MIGRATION OF GLUCOKINASE FROM NUCLEUS TO CYTOPLASM” (NATIONAL UNIVERSITY CORPORATION KAGAWA UNIVERSITY, priority 2006, published 2014).
“Also recorded” adds a separate entry of the source.

Tests used:
glucokinase [1] = assay: Intracellular transfer of hepatic glucokinase with hormones and various compounds (rat hepatocyte primary culture); format: cell-based; conditions: 25 mM D-glucose MEM
Protocol: Wistar rats (male, aged 5 to 8 weeks) were used. A primary culture of the rat hepatocyte was incubated for a certain period of time in a 25 mM D-glucose-containing MEM culture medium supplemented with hormones and various compounds. The hepatocytes were fixed with 4% para-formaldehyde, and stained by a fluorescence antibody method using an anti-glucokinase antibody. A fluorescent image obtained with a co-focus laser microscope was analyzed with the NIH Image to calculate the fluorescence intensity in the nucleus and the cytoplasm, which were defined as the glucokinase level in the nucleus and the cytoplasm.

Goto-Kakizaki rats [2] = assay: Blood glucose levels in tail vein and portal vein after sugar loading, Goto-Kakizaki rats; format: in vivo, rat
Protocol: (§1) The action of suppressing blood glucose increase with D-fructose at a low concentration was examined. To Goto-Kakizaki rats as a model animal of type 2 diabetes mellitus, D-glucose to 2 g/[…] or D-glucose to 2 g/l kg body weight+D-fructose to 0.2 g/1 kg body weight was administered orally, to examine the modification of glucokinase transfer from the nucleus to the cytoplasm in hepatocytes and the change of the blood glucose levels in the portal vein and the tail vein.
(§2) 2 g/kg D-glucose is orally given to male Goto-Kakizaki rats starved overnight. Simultaneously, 0.2 g/kg D-psicose was orally given. Thirty minutes later and 60 minutes later, the rats were perfused and fixed with 4% para-formaldehyde under anesthesia, from which liver was immediately resected to prepare frozen sections. The distribution of hepatic glucokinase in nucleus and cytoplasm was analyzed with the fluorescence antibody method using an anti-glucokinase antibody. Simultaneously, blood was drawn out from the tail vein and the portal vein, to assay blood glucose level and insulin concentration. Herein, liver is divided in the portal vein region and the central vein region of liver. It has been known that the activity of glucokinase in the central vein region is higher by 1.3 fold to 1.5 fold than the activity thereof in the portal vein region. Therefore, the glucokinase distributions in the nucleus and the cytoplasm in the central vein region and the portal vein region were analyzed.

hepatocytes = assay: Lactic acid generation in hepatocytes; format: cell-based, rat; conditions: each D-ketose added at 0.5 mM; MEM with 15 mM glucose; DMSO control
Protocol: […] As a control, DMSO was added.
(§3) Cultured hepatocytes were incubated in an MEM culture medium containing 5 mM or 25 mM D-glucose with an action of promoting glucokinase transfer from nucleus to cytoplasm. Glucokinase transfer from nucleus to cytoplasm, glycogen synthesis and lactic acid generation were increased. Via glucose, glucokinase transfer from nucleus to cytoplasm occurs, which raises cytoplasmic glucokinase activity to possibly promote the sugar metabolism in liver. […] (FIGS. 4, 6, 7 and 8)

glucokinase [3] = target: T1, glucokinase (Rattus norvegicus, UniProt P17712); assay: Hepatic glucokinase transfer from nucleus to cytoplasm after oral sugar given with D-glucose, Wistar rats (Example 3); format: in vivo; conditions: Wistar rats; 0.2 g/kg oral simultaneously with 2 g/kg D-glucose; 30 minutes later
T1 construct: stained by a fluorescence antibody method using an anti-glucokinase antibody; endogenous in cells; host or cells: primary culture of hepatocytes from male Wistar rats
T1 sequence (P17712 1-465 isoform P17712-3): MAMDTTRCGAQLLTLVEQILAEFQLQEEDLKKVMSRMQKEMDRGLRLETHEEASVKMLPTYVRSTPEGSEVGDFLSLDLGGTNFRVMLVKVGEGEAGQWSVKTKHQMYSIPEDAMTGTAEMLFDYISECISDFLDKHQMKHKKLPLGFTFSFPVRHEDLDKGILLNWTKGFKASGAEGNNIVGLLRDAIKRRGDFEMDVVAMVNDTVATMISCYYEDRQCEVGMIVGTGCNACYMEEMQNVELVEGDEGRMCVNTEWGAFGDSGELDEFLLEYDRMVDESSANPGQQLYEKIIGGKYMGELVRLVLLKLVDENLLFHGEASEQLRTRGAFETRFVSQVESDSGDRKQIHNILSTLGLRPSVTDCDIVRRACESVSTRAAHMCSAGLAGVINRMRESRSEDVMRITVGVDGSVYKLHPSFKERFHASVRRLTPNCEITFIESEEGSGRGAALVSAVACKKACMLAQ
Protocol: Male Wistar rats starved overnight were given 2 g/kg D-glucose orally. Simultaneously, 0.2 g/kg D-psicose, D-fructose or a mixture of D-psicose and D-fructose at 1:3 were given orally. Thirty minutes later, the rats were perfused and fixed with 4% para-formaldehyde under anesthesia, from which liver was immediately resected to prepare frozen sections. The distribution of glucokinase in the nucleus and the cytoplasm was analyzed with the fluorescence antibody method using an anti-glucokinase antibody. Simultaneously, blood was drawn out from the tail vein and the portal vein, to assay blood glucose levels.

glucokinase [4] = target: T1, glucokinase; assay: Glucokinase distribution in primary hepatocytes with D-glucose and D-fructose (fluorescence antibody method); format: cell-based; conditions: 0.5 mM D-fructose present vs absent; 5 mM or 25 mM D-glucose; 37° C. 30 minutes
Protocol: In the presence of 5 mM D-glucose, glucokinase mainly existed in the cell nucleus.
as §3

glucokinase [5] = target: T1, glucokinase; assay: Intracellular transfer of hepatic glucokinase with ketose (fluorescence antibody method, rat hepatocyte primary culture); format: cell-based
Protocol: Wistar rats (male, aged 5 to 8 weeks) were used. […] The hepatocytes were fixed with 4% para-formaldehyde, and stained by a fluorescence antibody method using an anti-glucokinase antibody. A fluorescent image obtained with a co-focus laser microscope was analyzed with the NIH Image to calculate the fluorescence intensity in the nucleus and the cytoplasm, which were defined as the glucokinase level in the nucleus and the cytoplasm. […] By the same method as described above, the glucokinase level in the intracellular nucleus and the cytoplasm was determined.

glucokinase [6] = target: T1, glucokinase; assay: Hepatic glucokinase transfer from nucleus to cytoplasm in Goto-Kakizaki rats (type 2 diabetes model); format: in vivo
Protocol: as §1, §2

[7] = system: primary culture of rat hepatocytes; assay: Glucose phosphorylation rate in cultured hepatocytes; format: cell-based
Protocol: Subsequently, the primary culture was incubated at various D-fructose concentrations in the presence of 25 mM D-glucose. […] The results agreed with the results reported so far.

glucokinase [8] = target: T1, glucokinase; assay: Hepatic glucokinase transfer from nucleus to cytoplasm after oral sugar alone, Wistar rats (Example 2); format: in vivo; conditions: Wistar rats starved overnight; 2 g/kg oral; 30 minutes later
Protocol: Thirty minutes later, the rats were subjected to perfusion and fixing with 4% para-formaldehyde under anesthesia, from which liver was immediately resected to prepare frozen sections. The distribution of glucokinase in nucleus and cytoplasm was analyzed with the fluorescence antibody method using an anti-glucokinase antibody. Simultaneously, blood was drawn out from the tail vein and the portal vein, to assay blood glucose levels.

Goto-Kakizaki rats [9] = assay: Insulin concentrations in tail vein and portal vein under sugar loading, Goto-Kakizaki rats; format: in vivo, rat; conditions: 0.2 g/kg with 2 g/kg D-glucose oral, 30 minutes and 60 minutes, vs D-glucose alone
Protocol: as §2

[10] = ketose added, MEM culture medium with 5 mM or 15 mM D-glucose
[11] = 0.2 g/kg with 2 g/kg D-glucose oral, 30 minutes and 60 minutes, vs D-glucose alone
[12] = 0.2 g/kg with 2 g/kg D-glucose oral, compared with D-glucose alone, portal and central vein regions

COc1cccc(-c2cc(=O)c3ccccc3o2)c1N [PD-98059]
cytoplasmic glucokinase (glucokinase [1]; compound in the presence of insulin): such change could not be observed

CC(C)Cn1c(=O)n(C)c(=O)c2[nH]cnc21 [IBMX]
cytoplasmic glucokinase (glucokinase [1]; hormone or compound alone): cytoplasmic glucokinase activity was reduced

O=C(CO)[C@@H](O)[C@H](O)[C@H](O)CO [D-fructose]
blood glucose level in the portal vein (Goto-Kakizaki rats [2]; additional supplement of D-fructose compared with D-glucose alone): suppressed significantly
blood glucose level in the portal vein (Goto-Kakizaki rats [2]; effect of D-fructose loading added to D-glucose): No difference was observed
lactic acid generation (hepatocytes): lactic acid generation was increased
glucokinase transfer from the nucleus to the cytoplasm in hepatocytes (glucokinase [3]): glucokinase was mostly transferred to the cytoplasm
glucokinase transfer from the nucleus to the cytoplasm (glucokinase [4]): the glucokinase transfer from the nucleus to the cytoplasm increased
glucokinase transfer from nucleus to cytoplasm (glucokinase [5]; ketose added at 1 mM or more, 5 mM or 15 mM D-glucose): glucokinase transfer from nucleus to cytoplasm was gradually reduced
glucokinase transfer from nucleus to cytoplasm (glucokinase [5]; [10]): glucokinase transferred from nucleus to cytoplasm
glucokinase transfer from the nucleus to the cytoplasm in hepatocytes (glucokinase [6]; D-glucose 2 g/kg + D-fructose 0.2 g/kg oral, compared with D-glucose alone): significantly increased
glucose phosphorylation ([7]; 0.5 mM D-fructose present vs absent, various glucose concentrations): enhanced glucose phosphorylation in the hepatocytes
glucose phosphorylation ([7]; above 0.5 mM D-fructose, 25 mM D-glucose): glucose phosphorylation was reduced
glucose phosphorylation ([7]; up to 0.5 mM D-fructose, 25 mM D-glucose): glucose phosphorylation was enhanced as the D-fructose concentration was raised
glucokinase transfer from the nucleus to the cytoplasm in hepatocytes (glucokinase [8]): a higher level of the transfer was observed than with D-psicose

CCCCCCOC(=O)[C@]1(O)C[C@@H]2O[C@@]1(C)n1c3ccccc3c3c4c(c5c6ccccc6n2c5c31)C(=O)NC4 [KT-5720]
cytoplasmic glucokinase (glucokinase [1]; compound in the presence of glucagon): Almost no reduction of cytoplasmic glucokinase with glucagon was observed any more

glucagon: hormone that transfers glucokinase from cytoplasm to nucleus
cytoplasmic glucokinase (glucokinase [1]; hormone or compound alone): cytoplasmic glucokinase activity was reduced

O=C(CO)[C@@H](O)[C@@H](O)[C@@H](O)CO [L-psicose]
glucokinase transfer from nucleus to cytoplasm (glucokinase [5]; [10]): glucokinase transferred from nucleus to cytoplasm

O=C(CO)[C@@H](O)[C@H](O)[C@@H](O)CO [L-sorbose]
glucokinase transfer from nucleus to cytoplasm (glucokinase [5]; [10]): glucokinase transferred from nucleus to cytoplasm as the L-sorbose concentration was raised

O=C(CO)[C@@H](O)[C@@H](O)[C@H](O)CO [D-tagatose]
glucokinase transfer from nucleus to cytoplasm (glucokinase [5]; ketose added up to 1 mM, any of the D-glucose concentrations): glucokinase transferred from nucleus to cytoplasm
glucokinase transfer from nucleus to cytoplasm (glucokinase [5]; [10]): glucokinase transferred from nucleus to cytoplasm
glucokinase transfer from nucleus to cytoplasm (glucokinase [5]; ketose concentration 10 mM or more): no change of the glucokinase transfer was observed; also recorded: no glucokinase transfer from nucleus to cytoplasm was observed

O=C(CO)[C@H](O)[C@@H](O)[C@H](O)CO [D-sorbose]
glucokinase transfer from nucleus to cytoplasm (glucokinase [5]; at any of the ketose concentrations): did not influence glucokinase transfer; also recorded: hardly influenced such glucokinase transfer

O=C(CO)[C@H](O)[C@@H](O)[C@@H](O)CO [L-fructose]
glucokinase transfer from nucleus to cytoplasm (glucokinase [5]; ketose added at 20 mM or more, 5 mM or 15 mM D-glucose): glucokinase transfer from nucleus to cytoplasm was gradually reduced
glucokinase transfer from nucleus to cytoplasm (glucokinase [5]; [10]): glucokinase transferred from nucleus to cytoplasm

CCCC(=O)Nc1ncnc2c1ncn2[C@@H]1O[C@@H]2COP(=O)(O)O[C@H]2[C@H]1OC(=O)CCC [Bt2cAMP]
cytoplasmic glucokinase (glucokinase [1]; hormone or compound alone): cytoplasmic glucokinase activity was reduced

insulin: hormone that transfers glucokinase from nucleus to cytoplasm
cytoplasmic glucokinase (glucokinase [1]; hormone or compound alone): increase of cytoplasmic glucokinase

O=C(CO)[C@H](O)[C@H](O)[C@H](O)CO [D-psicose]
glucose concentration in the portal vein (Goto-Kakizaki rats [2]; [11]): significantly lower values
glucose concentration in the tail vein (Goto-Kakizaki rats [2]; [11]): significantly lower values
lactic acid generation (hepatocytes): lactic acid generation was increased
glucokinase transfer from the nucleus to the cytoplasm in hepatocytes (glucokinase [3]): glucokinase was transferred to the cytoplasm apparently but more weakly than with D-fructose
insulin concentration in the portal vein (Goto-Kakizaki rats [9]): significantly lower values
insulin concentration in the tail vein (Goto-Kakizaki rats [9]): significantly lower values
glucokinase transfer from nucleus to cytoplasm (glucokinase [5]; even at a high ketose concentration): exerted an action to promote glucokinase transfer from nucleus to cytoplasm
glucokinase transfer from nucleus to cytoplasm (glucokinase [5]; [10]): glucokinase transferred from nucleus to cytoplasm
cytoplasmic glucokinase fluorescence (liver) (glucokinase [6]; [12]): increased the cytoplasmic fluorescence
nuclear glucokinase fluorescence (liver) (glucokinase [6]; [12]): significantly reduced the nuclear fluorescence
cytoplasmic glucokinase level (fluorescence intensity analysis) (glucokinase [6]; simultaneous administration with D-glucose vs D-glucose alone, central vein and portal vein regions): further increased the cytoplasmic glucokinase level
glucokinase transfer from the nucleus to the cytoplasm in hepatocytes (glucokinase [8]): glucokinase transfer from the nucleus to the cytoplasm could be observed

O=C(CO)[C@H](O)[C@H](O)[C@@H](O)CO [L-tagatose]
glucokinase transfer from nucleus to cytoplasm (glucokinase [5]; [10]): never influenced the glucokinase transfer
